# Source: patent US20090130707A1, “Methods of reducing the inhibitory effect of a redox active metal ion on the enzymatic hydrolysis of cellulosic material” (priority 2007, published 2009)
# Entries after “also recorded” stand apart in the source; their conditions may differ.
# Tests used:
# [1] = tested on: Cellulolytic Enzyme Composition #2; experiment: mini-scale PCS hydrolysis by Cellulolytic Enzyme Composition #2; type: biochemical, Trichoderma reesei
# Description: Corn stover was pretreated at the U.S. Department of Energy National Renewable Energy Laboratory (NREL), […], Colo., USA, using dilute sulfuric acid. The following conditions were used for the pretreatment: 1.4 wt % sulfuric acid at 195° C. for 4.5 minutes. According to limit digestion with excess cellulase enzymes, the water-insoluble solids in the pretreated corn stover (PCS) contained 59.5% cellulose. Prior to use, the PCS was washed with a large volume of deionized water until soluble acid and sugars were removed. The dry weight of the water-washed PCS was 19.16%.
# The effect of various salts (FeSO4, FeCl2, NaCl, Na2SO4, MnSO4, MnCl2) was determined in the hydrolysis of PCS by Cellulolytic Enzyme Composition #2. […] Cellulolytic Enzyme Composition #2 was added at 0.25 g per liter. Reactions without the addition of the salt served as controls. The capped tubes were incubated at 50° C. in an INNOVA® 4080 incubator shaker (New Brunswick Scientific Co., Inc., Edison, N.J., USA) at 150 rpm.
# (§1) Aliquots of the suspensions, sampled over time, were filtered by centrifugation using a 0.45 μm MULTISCREEN® HV membrane (Millipore, Billerica, Mass., USA) at 2000 rpm for 15 minutes using a SORVALL® RT7 centrifuge (Thermo Fisher Scientific, Waltham, Mass., USA). When not used immediately, the filtered sugary aliquots were frozen at −20° C. Sugar concentrations of the samples diluted in 0.005 M H2SO4 were measured after elution from a 4.6×250 mm AMINEX® HPX-87H column (Bio-Rad, Hercules, Calif., USA) by 0.005 M H2SO4 at a flow rate of 0.4 ml/minute at 65° C. with quantitation by integration of glucose and cellobiose using refractive index detection (CHEMSTATION®, AGILENT® 1100 HPLC, Agilent Technologies, Santa Clara, Calif., USA) calibrated with standards of glucose and cellobiose. The resultant equivalents were used to calculate the percentage of cellulose conversion for each reaction.
# The degree of cellulose conversion to glucose plus cellobiose (% conversion) was calculated using the following equation:
# % Conversion=(glucose+cellobiose×1.053)(mg/ml)×100×162/cellulose(mg/ml)×180)=(glucose+cellobiose×1.053)(mg/ml)×100/(cellulose(mg/ml)×1.111)
# In this equation the factor 1.111 reflects the weight gain in converting cellulose to glucose, and the factor 1.053 reflects the weight gain in converting cellobiose to glucose. Cellulose in PCS was determined by a limit digest of PCS to release glucose and cellobiose.
# [2] = tested on: Cellulolytic Enzyme Composition #1; experiment: mini-scale PCS hydrolysis by Cellulolytic Enzyme Composition #1; type: biochemical, Trichoderma reesei; details: 10 mM FeSO4; 43 g PCS and 0.25 g enzyme per liter, pH 5, 50° C.
# Description: The effect of various salts (FeSO4, FeCl2, NaCl, Na2SO4, MnSO4, MnCl2) was determined in the hydrolysis of PCS by Cellulolytic Enzyme Composition #2. The PCS hydrolysis was performed in duplicate in capped 1.7 ml EPPENDORF® tubes (“mini-scale”) containing 1 ml suspensions of 43.4 g of PCS (dry weight) per liter, 10 mM salts in 50 mM sodium acetate pH 5. Cellulolytic Enzyme Composition #2 was added at 0.25 g per liter. Reactions without the addition of the salt served as controls. The capped tubes were incubated at 50° C. in an INNOVA® 4080 incubator shaker (New Brunswick Scientific Co., Inc., Edison, N.J., USA) at 150 rpm.
# as §1
# Example 30 was repeated with both Cellulolytic Enzyme Composition #1 and Cellulolytic Enzyme Composition #2. Soluble reducing sugars were measured by HPLC as described in Example 30. Reactions without the addition of FeSO4 served as controls.
# The hydrolysis was performed in a series of duplicate “mini-scale” hydrolysis reactions according to the procedure described in Example 30.
substance,measurement,setting,value
Ferrous sulfate [FeSO4],Effect on PCS hydrolysis,"[1]; 10 mM salt, 43.4 g PCS and 0.25 g enzyme per liter, 50 mM sodium acetate pH 5, 50° C.",significant inhibition; also recorded: significantly inhibited
same,Effect on the cellulases,[1]; 0.1 and 1 mM,did not significantly affect
same,Effect on PCS hydrolysis,[2],significantly inhibited
